Assay results from US20230346735A1, “Nutritional Composition Comprising Carnitine and Method for Treating or Preventing an Infection in a Mammal” (priority 2020, published 2023).

System: ACE-2
Assay: ACE-2 surface protein in Calu-3 cells, flow cytometry
Format: cell-based, human
Settings: Calu-3, 100, 500 and 1000 µM, less than L-carnitine
Procedure: ACE-2 surface expression protein in Calu-3 cells was evaluated using FACS flow cytometry sorting. […] Cells were detached with PBS/EDTA at room temperature. FBS-containing growth media was added to cells to inactivate TE. Cells were spun for 5 min at […]. Supernatant was removed and cells were washed twice in flow buffer (PBS+0.2% FBS). Between 100,000-200,000 cells were stained for ACE-2 and BST2 (absent in Calu-3and used as a control) for 30 min on ice using goat anti-ACE-2 (R&D Systems; AF933) and PE-conjugated BST2 (BioLegend; Cat # 348406). Cells were washed once and stained with Alexa Fluor 647 donkey anti-goat for 30 min on ice. Cells were washed once, resuspended in PBS/EDTA and samples were acquired on a FACS LSR Fortessa cytometer (BD Bioscience). Data were analyzed using Flowjo (Version 10.1).
The testing was repeated with D-Carnitine as well. Cells were either stained for ACE2 using either anti-ACE2 Ab, anti-BST2 Ab or the combination or both followed by secondary Ab isotype. […] The table represents the fluorescence counts.

C[N+](C)(C)C[C@@H](O)CC(=O)[O-] [D-carnitine]
ACE-2 surface protein levels: decreased significantly
